In patent US10471030B2, “Immunomodulatory and differentiating function selective retinoid and rexinoid compounds in combination with immune modulators for cancer immunotherapy” (Io Therapeutics, Inc., priority 2017, dated 2019):

Key:
[1] = system: MM H929 cell lines and MM CD138+ primary cells; assay: mRNA expression of B cell and PC markers in MM cells, liquid or BM stroma co-culture (qRT-PCR); format: cell-based, human; conditions: 1 μM for 5 days; for expression of differentiation markers: liquid conditions (absence of stroma)
Description: (§1) 24-well plates were coated with 0.1% gelatin in PBS for 30 min at 37° C. The gelatin solution was removed, and the stromal cells were cultured overnight at a density of 5×10^4 cells/well to obtain a confluent monolayer. At that time, MM cell lines or primary MM cells (1×10^5 in 2 ml) were added to the stroma cultures. The stroma cocultures were incubated at 37° C. in RPMI containing 10% FCS, L-glutamine, and P/S, with or without AGN194310 (1 μM for 5 days), R115866 (1 μM for 5 days), IRX5183 (1 μM for 5 days), or BTZ (2.5 nM for 48 hr).
(§2) Total RNA was extracted using the RNeasy Mini Kit (QIAGEN) according to the manufacturer's instructions. cDNA was synthesized by reverse transcription using the iScript cDNA Synthesis Kit (Bio-Rad). qRT-PCR was performed with iTaq SYBR Green Supermix (Bio-Rad) using sequence specific primers. Gene expression was normalized to GAPDH, and relative quantification was calculated using ΔΔCt. All experiments were performed in duplicate and run on the Bio-Rad CFX96 machine.
The BM microenvironment (also called “niche”) limits PC differentiation by modulating retinoid signaling. A population of MM progenitors, phenotypically similar to B cells, is intrinsically resistant to BTZ and contributes to MRD and relapse. To investigate whether the BM niche plays a role in determining the phenotype of MM cells, the mRNA expression of B cell and PC markers in MM H929 cell lines (FIGS. 3A-D) and MM CD138+ primary cells (FIGS. 3E-H) was analyzed following co-culture with mouse BM stroma using human-specific primers. […] In contrast, co-culture of MM cells with BM stroma decreased the mRNA expression of B lymphocyte-induced maturation protein 1 (BLIMP1) and spliced X box-binding protein 1 (XBP1s) (FIG. 3B, C, F, G), which are critical mediators of PC differentiation.
The BM niche regulates hematopoietic stem cell (HSC) differentiation by expressing the retinoid-inactivating enzyme CYP26. CYP26 enzymes were highly expressed in BM mesenchymal cells, while their expression was barely detectable in MM cells. Since retinoid signaling promotes PC differentiation and potentiates Ig secretion, it was determined whether stromal CYP26 is responsible for inducing a B cell phenotype in MM cells. To this end, co-culture conditions were treated with the CYP26 inhibitor R115866 (R115) or the CYP26-resistant RA receptor α-selective (RARα-selective) retinoid IRX5183 (IRX).

[2] = system: MM cells; assay: surface CD138 expression of MM cells (flow cytometry); format: cell-based, human; conditions: 1 μM
Description: as §1
Following treatment, MM cells were collected, washed with PBS, and stained for 15 min at room temperature with phycoerythrin-conjugated (PE-conjugated) anti-CD138. Cells were washed to remove unbound antibody and evaluated in a FACSCalibur system (BD Biosciences). Stromal cells were identified by GFP expression, and viable cells were identified using 7-aminoactinomycin D (7-AAD). To calculate cell numbers, live GFP-cells were normalized to calibration beads.
Expression of CD138 is a hallmark of normal PC differentiation as well MM PCs.

[3] = system: MM cell lines and MM CD138+ primary cells; assay: BTZ sensitivity of MM cells, clonogenic or cellular recovery, liquid or BM stroma; format: cell-based, human; conditions: for BTZ resistance after separation from BM stroma: H929 cells, 5-day stroma co-culture, fresh media 0 to 48 hr; for sensitivity of MM cells to BTZ: BTZ 2.5 nM for 48 hr
Description: as §1
MM cells were separated from BM stromal cells by gently pipetting several times around the well. Detached cells were centrifuged, resuspended in fresh media, and incubated in a 24-well plate for 1 hr at 37° C. During this short incubation period, contaminating stromal cells attached to the well, while MM cells remained in suspension. MM cells were then recovered by gently pipetting. This protocol was used for qRT-PCR and CFU coculture experiments. The purity achieved using this protocol was confirmed by flow cytometry to be 98%-99% MM cells and less than 2% contaminating stroma.
After treatment, MM cells were collected, washed with PBS, and plated at a density of 5,000 cells/ml in 1 ml of 1.32% methylcellulose supplemented with 30% FBS, 10% BSA, L-glutamine, P/S, and 0.1 mM β-ME. Cells were plated in triplicate in 35-mm culture dishes, incubated at 37° C., and scored for the presence of colonies 14 days later.
To determine whether decreased retinoid signaling contributes to BTZ resistance within the BM niche, MM cell lines and MM CD138+ primary cells were incubated with BM stroma for 5 days, followed by BTZ treatment.
Strategies to overcome microenvironment-dependent chemoprotection have focused on mobilization of cancer cells from the BM niche into the peripheral circulation. It was analyzed whether the change in phenotype and subsequent BTZ resistance of MM cells were lost upon separation from the BM stroma, a process that mimics mobilization. To this end, H929 cells were separated from BM mesenchymal cells following a 5-day stroma co-culture, incubated in fresh media (RPMI with 10% FBS) for 0 to 48 hr, and then treated with BTZ. […] Thus, microenvironment-dependent BTZ resistance induced by the change in MM cell phenotype may not immediately be reversed by tumor mobilization.

[4] = system: Naive CD4+ CD25− FoxP3− cells; assay: Treg cell differentiation from naive T cells in vitro (FoxP3-GFP, flow cytometry); format: cell-based, mouse; conditions: in vitro assay; data not shown
Description: (§3) To determine whether a RARα agonist could affect T cell differentiation, T cells were incubated with a RARα agonist to determine its effect on Foxp3 expression. Naive CD4^+ CD25^− FoxP3^− cells were purified from a Foxp3-GFP mouse using flow cytometry by sorting and isolating based upon a GFP^− phenotype. These cells were activated polyclonally with αCD3 in vitro in the presence of IL-2 and TGF-β. These cells were then cultured in media with various concentrations of compound IRX5183 (a RARα agonist) and the expression of FoxP3-GFP was analyzed by flow cytometry. The RARα agonist compound IRX5183 enhanced differentiation of immunosuppressive Treg cells and inhibited differentiation of inflammatory TH17 cells from naïve T cells in vitro (Table 2).

[5] = system: Naive CD4+ CD25− FoxP3− cells; assay: Th17 cell differentiation from naive T cells in vitro; format: cell-based, mouse; conditions: in vitro assay; data not shown
Description: as §3

[6] = system: CD4+ T cells; assay: in vivo T cell differentiation in mice (FoxP3 expression in CD4+ T cells of blood and spleen); set-up: species or system mouse; conditions: in vivo assay; data not shown
Description: To expand on the finding above, the in vivo effects of a RARα agonist on T cell differentiation was evaluated in a mouse model. Mice were treated with 100 μg of compound IRX5183 or an equivalent volume of DMSO (vehicle control) every other day for 10 days. Lymphocytes from the blood and spleen were then isolated and FoxP3 expression in CD4^+ T cells was assessed.

[7] = system: B16F10 tumor cells; assay: survival of C57BL/6 mice engrafted with B16F10 tumor cells; format: in vivo; conditions: at 50 days; 10 nM RARγ agonist; vehicles only 0%
Description: The anti-tumor effects of anti-CTLA-4 antibody treatment combined with 10 nM RAR ? agonist (AGN204647 (IRX4647)) are examined in C57BL/6 mice engrafted with B16F10 tumor cells. […] The survival rate of the mice treated with anti-CTLA-4 antibody alone is 40% at 50 days while the mice treated with RAR ? agonist alone have a 30% survival in the same time.

[8] = system: NB4 cells; assay: CFU experiments off and on stroma, NB4 cells; format: cell-based; conditions: 10^−7 M ATRA, IRX5183, or 10^−8 M AM80
Excerpt: (§4) Data across three independent experiments.

[9] = system: OCI-AML3 cells; assay: CFU experiments off and on stroma, OCI-AML3 cells; format: cell-based; conditions: 10^−6 M ATRA, IRX5183, or 10^−7 M AM80
Excerpt: as §4

[10] = system: Kasumi-1 cells; assay: CFU experiments off and on stroma, Kasumi-1 cells; format: cell-based; conditions: 10^−6 M ATRA, IRX5183, or 10^−7 M AM80
Excerpt: as §4

[11] = system: H929 luciferase+ (Luc+) cells; assay: systemic MM xenograft, bioluminescence; format: in vivo, NSG mice; conditions: monotherapy, 4 weeks; BTZ 0.5 mg/kg i.p. twice weekly, IRX 10 mg/kg once daily
Description: For the systemic MM model, 2×10^6 Luc+/GFP+ H929 cells were injected via the tail vein into 16-week-old male NSG mice. After engraftment, as determined by an exponential increase in bioluminescence, mice were treated with BTZ (0.5 mg/kg i.p.) twice weekly and with IRX (10 mg/kg) once daily. Tumor burden was assessed by bioluminescence, as above.
To test whether retinoids can enhance BTZ activity in MM, a systemic MM xenograft was developed by injecting 2×10^6 H929 luciferase+ (Luc+) cells via the tail vein of non-obese, diabetic, severe combined immunodeficiency IL-2 receptor γ-KO (NSG) mice. The animals were randomized to receive IRX, BTZ, or a combination of both, and disease burden was followed weekly by bioluminescence imaging (FIG. 6).

[12] = system: H929 Luc+ cells; assay: subcutaneous xenograft model of MM-niche interactions with WT or Smo-KO stroma, bioluminescence; format: in vivo, NSG mice; conditions: BTZ 0.5 mg/kg i.p. twice weekly
Description: 1×10^6 H929 Luc+ cells and 1×10^6 mouse BM stromal cells were resuspended in 100 μl […]®, diluted with RPMI (1:1), and injected subcutaneously into 16-week-old male NSG mice. After 4 days, treatment with BTZ (0.5 mg/kg i.p. twice weekly) and IRX (10 mg/kg i.p. daily) was initiated. Tumor burden was assessed by bioluminescence using the In Vivo Imaging System (PerkinElmer). For imaging, mice were exposed to 120 mg/kg D-luciferin via intraperitoneal injection […] before imaging and were anesthetized using isoflurane. Images were analyzed with Living Image Software, version 2.5 (PerkinElmer), and data were quantified as photons/second.
To study to what extent an RA-low environment created by the BM stroma and enhanced by MM cells via paracrine Hedgehog signaling contributes to BTZ resistance, a xenograft model of MM-niche interactions was developed. Each mouse carried 2 subcutaneous tumors consisting of H929 Luc+ cells and either WT (anterior tumors) or Smo-KO stroma (posterior tumors). Mice were treated with IRX (10 mg/kg i.p. daily), BTZ (0.5 mg/kg i.p. twice weekly), or a combination of both. The growth of tumors bearing WT or Smo-KO stroma was not different in untreated or IRX-treated groups (FIGS. 9 and 10). […] While some tumors in the treatment group receiving combined IRX and BTZ appeared to have regressed completely, even after anatomical study, this was not the case for all the mice in this group.

[13] = system: CYP26A1; assay: stromal CYP26A1 expression in BM stromal cells (qRT-PCR); format: cell-based; conditions: for CYP26A1 expression on BM stromal cells: soluble factors tested
Description: as §2

CCc1ccc(C2=CC(C)(C)Sc3ccc(C#Cc4ccc(C(=O)O)cc4)cc32)cc1 [AGN194310]
expression of differentiation markers [1]: mimicked the changes induced by BM stromal cells | surface CD138 expression ([2]; without stroma): markedly decreased | BTZ sensitivity of MM cells ([3]; liquid, 1 μM for 5 days, then BTZ): decreasing BTZ sensitivity

CCOc1c(Br)cc(C(=O)Nc2ccc(C(=O)O)cc2)cc1C(=O)c1ccc(C)cc1 [AGN196996]
Treg cell numbers [4]: decreases Treg cell numbers | Th17 cell numbers [5]: increases Th17 cell numbers | Th17 cell numbers [6]: increases Th17 cell numbers | Treg cell numbers [6]: decreases Treg cell numbers

CC1(C)CCC(C)(C)c2cc(C(/C=C/c3cccc(C(=O)O)c3)=N/O)ccc21 [AGN204647]
survival rate [7]: 30%

CC1(C)CCC(C)(C)c2cc(NC(=O)c3ccc(C(=O)O)cc3)ccc21 [AM80, 4-[(5,6,7,8-tetrahydro-5,5,8,8-tetramethyl-2-naphthalenyl)carbamoyl]benzoic acid]
clonogenic growth (CFU) [8]: decrease in clonogenic growth compared to control | clonogenic growth (CFU) [9]: decrease in clonogenic growth compared to control | clonogenic growth (CFU) [10]: decrease in clonogenic growth compared to control

CC1=C(/C=C/C(C)=C/C=C/C(C)=C/C(=O)O)C(C)(C)CCC1 [ATRA, all-trans retinoic acid]
clonogenic growth (CFU) [8]: stroma blockage | clonogenic growth (CFU) [9]: stroma blockage | clonogenic growth (CFU) [10]: stroma blockage

CC(C)C[C@H](NC(=O)[C@H](Cc1ccccc1)NC(=O)c1cnccn1)B(O)O [BTZ, bortezomib]
BTZ resistance after separation from BM stroma ([3]; then BTZ): remained partially resistant to BTZ for up to 48 hr | sensitivity of MM cells to BTZ ([3]; absence of BM stroma (liquid)): highly sensitive | sensitivity of MM cells to BTZ ([3]; after 5 days incubation with BM stroma): induced BTZ resistance | tumor burden (bioluminescence) [11]: decreased tumor growth compared with untreated controls | response of tumors carrying Smo-KO stroma (bioluminescence) [12]: significant response | response of tumors with WT stroma (bioluminescence) [12]: refractory to BTZ treatment

CCC(CC)C(c1ccc(Nc2nc3ccccc3s2)cc1)n1cncn1 (stereo not shown) [Compound R115866]
mRNA expression of BCL6, BLIMP1, XBP1s, CHOP markers ([1]; BM stroma co-cultures): restored all markers to levels comparable to those of liquid control conditions | expression of differentiation markers [1]: did not significantly affect | surface CD138 expression ([2]; BM stromal cell co-cultures): restored CD138 expression | stroma-induced BTZ resistance ([3]; BM stroma with 1 μM test agent for 5 days, then BTZ 2.5 nM for 48 hr): overcome | BTZ resistance after separation from BM stroma ([3]; then BTZ): prevented the development of a BTZ-resistant phenotype

CC1=C2C[C@H]3[C@@H](CC=C4C[C@@H](O)CC[C@@]43C)[C@@H]2CC[C@]12O[C@@H]1C[C@H](C)CN[C@H]1[C@H]2C [cyclopamine]
stromal Cyp26a1 upregulation by MM cells ([13]; co-culture with MM cells): partially overcame

IL-6: cytokine, soluble factor tested
CYP26A1 expression on BM stromal cells [13]: no significant effects

TNF-α
CYP26A1 expression on BM stromal cells [13]: no significant effects
